The source of these data is publication PMC8617031, “Development of a BCL-xL and BCL-2 dual degrader with improved anti-leukemic activity,” (Nature Communications, 2021).

Structures are written as SMILES. Where “and” joins values, the source holds several entries; their conditions need not be identical. Equal entries are not always repeated.

For one assay, the target named is T1, BCL-xL (Homo sapiens, UniProt Q07817).
T1 construct: endogenous in cells
Description: BCL-xL degradation by immunoblot in 293T cells. The format is cell-based. To be noted: for normalized BCL-xL protein content: 293T, Supplementary Fig. 1b. On the procedure:
(§1) The DC50 and Dmax were calculated using Prism based on the ImageJ-quantified western blots in Supplementary Fig. 4. c, d AlphaLISA assay to determine the formation of BCL-xL/PROTAC/VHL-ELOC-ELOB (VCB) (c) or BCL-2/PROTAC/VCB (d) ternary complex in a cell-free condition. Data represent the mean of a single experiment with 2 technical replicates. Similar results were obtained in one more independent experiment. e, f NanoBRET assays evaluating intracellular BCL-xL/PROTAC/VCB (e) or BCL-2/PROTAC/VCB (f) ternary complex formation. […] Data are expressed as mean ± s.e.m. of three biological replicates. Source data are provided as a Source data file.
(§2) Representative immunoblots are shown in (a–d) and β-actin was used as a loading control in all immunoblot analyses. The normalized protein content in the immunoblots is presented as mean values ± s.e.m. (n = 3 biologically independent experiments) in the bar graph (bottom panel). e, f The formation of BCL-xL/PROTAC/VCB (e) and BCL-2/PROTAC/VCB (f) ternary complexes in a cell-free condition was determined by AlphaLISA assay. Data represent the mean of a single experiment with 2 technical replicates. […] Source data are provided as a Source data file.
(§3) Cells were collected, washed once with ice-cold phosphate-buffered saline, pH 7.2 (PBS, cat. no. 20012027; Thermo Fisher Scientific) and lysed in RIPA lysis buffer (Cat. No. BP-115DG, Boston Bio Products, Ashland, MA, USA) supplemented with protease and phosphatase inhibitor cocktails (Cat. No. PPC1010, Sigma-Aldrich, St. Louis, MO, USA) through sonication. The samples were centrifuged at 14,000 r.p.m. for 5 min and the supernatants were transferred into a new tube. The protein concentration in the supernatants was determined using the Pierce BCA protein Assay kit (cat. no. 23225, Thermo Fisher Scientific). The protein concentration was normalized, and the samples were reduced in 4× Laemmli’s SDS-sample buffer (cat. no. BP-110R, Boston Bio Products) and denatured at 95 °C for 5 min. An equal amount of protein samples (20–40 μg per lane) were resolved using precast 4–20% Tris-glycine gels (Mini-PROTEAN TGX, cat. no. 456–1094, Bio-Rad), and resolved proteins were transferred onto 0.2-µm pore size polyvinylidene difluoride (PVDF) blotting membranes (cat. no. LC2002, Thermo Fisher Scientific) using mini trans-blot electrophoretic transfer cell (Bio-Rad). The membranes were blocked with non-fat dry milk (5% wt/vol) in 1× Tris-buffered saline-Tween-20 (TBST, cat. no. J77500, Affymetrix) for 1 h at room temperature, and were subsequently probed with primary antibodies at a predetermined optimal concentration in non-fat dry milk (5% wt/vol in TBST) overnight at 4 °C. The membranes were washed three times (5 min each) in TBST and then incubated with horse radish peroxidase (HRP)-conjugated secondary antibodies for 1 h at room temperature. Following sufficient washing with TBST, the membranes were exposed with chemiluminescent HRP substrate (cat. no. WBKLS0500, MilliporeSigma), and the signal was detected using the ChemiDoc MP Imaging System (Bio-Rad) and quantified using the ImageJ (v1.53a) software from NIH.

In the next assay the target is T2, BCL-2 (Homo sapiens, UniProt P10415).
T2 construct: endogenous in cells
Description: BCL-2 degradation by immunoblot in 293T cells. The format is cell-based. Conditions: for normalized BCL-2 protein content: 293T, 16 h, Supplementary Fig. 1b. On the procedure: as §1, §2, §3
On the technique in general: A western blot detects proteins with antibodies after separation by electrophoresis.

Assay [1] addresses T3, BCL-xL/PROTAC/VHL-ELOC-ELOB (VCB) ternary complex (Homo sapiens, UniProt P40337+Q07817).
T3 construct: pGEX-6P-1-VHL(54-213) (pDL2200) was constructed through Gibson assembly method; made in house; host or cells: bacterial culture (LB broth, IPTG induction)
Description: AlphaLISA ternary complex formation, cell-free, BCL-xL. Conditions: for AlphaLISA signal, BCL-xL/PROTAC/VCB: Fig. 2c raw Alpha reads. Type of assay: binding. As to the method:
(§4) AlphaLISA assay was used to evaluate the in vitro ternary complex formation between target proteins (BCL-xL or BCL-2), PROTAC and E3 ligase (VCB complex). In each well, 5 nM His-tagged BCL-xL or BCL-2 proteins and 5 nM GST-VCB complex was incubated with varying concentrations of compounds in fourfold serial dilutions, to a final volume of 40 µl in a 96-well PCR plate. After incubation at room temperature for 30 min, 5 µl alpha glutathione-donor beads (Cat. No. 6765300, PerkinElmer) were added to each well (20 µg/ml final concentration) and incubated for another 15 min. Thereafter, 5 µL 6× His-acceptor beads were added to each well (20 µg/ml final concentration) and incubated for an additional 45 min at room temperature. Thereafter, 17 µl of each sample was transferred in adjacent wells of a 384-well proxy plate, and the plate was scanned using the Alpha program on Biotek’s Synergy Neo2 multimode plate reader. The data were expressed as average AlphaLISA signal and plotted against different concentrations of compounds using GraphPad Prism 9 software.
On the technique in general: Bead proximity is the source of the signal in Alpha formats.

The target in assay [2] is T4, BCL-2/PROTAC/VCB ternary complex (Homo sapiens, UniProt P10415+P40337).
T4 construct: pGEX-6P-1-VHL(54-213) (pDL2200) was constructed through Gibson assembly method; made in house; host or cells: bacterial culture (LB broth, IPTG induction)
Description: AlphaLISA ternary complex formation, cell-free, BCL-2. Conditions: for AlphaLISA signal, BCL-2/PROTAC/VCB: Fig. 2d raw Alpha reads. The format is binding. As to the method:
as §4

Assay [3] concerns BCL-xL/PROTAC/VCB ternary complex (HiBit-BCL-xL, HaloTag-VHL). The assay is described as follows: NanoBRET intracellular ternary complex formation in 293T cells, BCL-xL. The format is cell-based, human. To be noted: NanoBRET, 293T cells, 6 h. The source says: (§5) Plasmids HaloTag-VHL (Cat. No. CS1679C155) and CMV HiBit (Cat. No. CS1956B03) were purchased from Promega. HiBit-BCL-xL and HiBit-BCL-2 were constructed previously. The two mutants (HiBit-BCL-xL-K157-only and HiBit-BCL-xL-K-ko) were constructed through Gibson assembly method. The primer pair (5′-[…]-3′ and 5′-[…]c[…]-3′) and the template Flag-BCL-xL-K157-only or Flag-BCL-xL-K-ko (pDL2129)[2] were used to clone the BCL-xL-K157-only-containing and BCL-xL-K-ko-containing fragments, respectively. The primer pair (5′-[…]g[…]-3′ and 5′-[…]-3′) and pBit3.1-N (Cat. No. N2361, Promega) were used to clone the vector-containing fragment. The PCR fragments were assembled using NEBuilder® HiFi DNA Assembly Master Mix (Cat. No. E2621, NEB, Ipswich, MA, USA). DNA sequences in all these plasmids were authenticated by automatic sequencing. […] After 24 h, 2 × 10^4 transfected cells were seeded into white 96-well tissue culture plates in Gibco™ Opti-MEM™ I Reduced Serum Medium, No Phenol Red (Cat. No. 11-058-021, Fisher) containing 4% FBS with or without HaloTag NanoBRET 618 Ligand (Cat. No. PRN1662, Promega) and incubated overnight at 37 °C, 5% CO2. The following day, serial diluted compounds were added into the medium and plates were incubated at 37 °C, 5% CO2, for 6 h. After treatment, NanoBRET Nano-Glo Substrate (cat. no. N1662, Promega) was added into the medium, and the contents were mixed by shaking the plate for 30 s before measuring donor and acceptor signals on Biotek plate reader. Dual-filtered luminescence was collected with a 450/50 nm bandpass filter (donor, NanoBiT-BCL-XL protein or NanoBiT-BCL-2 protein) and a 610-nm longpass filter (acceptor, HaloTag NanoBRET ligand) using an integration time of 0.5 s. mBRET ratios were calculated following the NanoBRET™ Nano-Glo® Detection System (Cat. No. N1662, Promega).
Background: Bioluminescence resonance energy transfer reports proximity on the nanometre scale.

In assay [4] the test system is BCL-2/PROTAC/VCB ternary complex (HiBit-BCL-2, HaloTag-VHL). The assay is described as follows: NanoBRET intracellular ternary complex formation in 293T cells, BCL-2. The format is cell-based, human. To be noted: NanoBRET, 293T cells, 6 h.
Source text: as §5

The mark [5] stands for this setting: compound 200000 nM, 2 technical replicates.

T2 sequence (P10415 whole entry): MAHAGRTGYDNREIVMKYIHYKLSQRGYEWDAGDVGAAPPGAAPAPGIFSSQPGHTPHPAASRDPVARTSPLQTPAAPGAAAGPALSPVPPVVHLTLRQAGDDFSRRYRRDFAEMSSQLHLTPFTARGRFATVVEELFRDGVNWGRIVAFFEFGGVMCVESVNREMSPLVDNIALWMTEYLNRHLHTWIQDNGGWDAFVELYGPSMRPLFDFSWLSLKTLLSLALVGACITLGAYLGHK
T1 sequence (Q07817 whole entry): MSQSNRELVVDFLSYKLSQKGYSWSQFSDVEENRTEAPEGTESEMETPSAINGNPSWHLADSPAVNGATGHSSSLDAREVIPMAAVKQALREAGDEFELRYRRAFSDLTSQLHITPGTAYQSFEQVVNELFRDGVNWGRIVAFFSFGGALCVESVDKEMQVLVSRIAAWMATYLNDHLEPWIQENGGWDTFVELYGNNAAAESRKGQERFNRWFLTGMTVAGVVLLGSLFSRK
T3 sequence (Q07817 1-212 limits assumed): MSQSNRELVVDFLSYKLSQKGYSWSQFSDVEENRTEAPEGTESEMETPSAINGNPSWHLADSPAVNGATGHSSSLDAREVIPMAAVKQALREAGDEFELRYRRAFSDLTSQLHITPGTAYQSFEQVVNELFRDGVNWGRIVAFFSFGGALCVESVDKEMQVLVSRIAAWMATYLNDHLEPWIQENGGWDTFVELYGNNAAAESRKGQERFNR
T3 sequence (P40337 54-213 limits assumed): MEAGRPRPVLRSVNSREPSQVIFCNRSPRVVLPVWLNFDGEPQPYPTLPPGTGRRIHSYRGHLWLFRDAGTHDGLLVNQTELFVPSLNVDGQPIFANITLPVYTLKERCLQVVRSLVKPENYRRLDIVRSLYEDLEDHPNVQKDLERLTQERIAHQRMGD
T3 sequence (Q15369 17-112 partner limits assumed): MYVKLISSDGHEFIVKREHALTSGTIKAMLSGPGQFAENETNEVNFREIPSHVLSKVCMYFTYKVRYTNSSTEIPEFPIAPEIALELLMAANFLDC
T3 sequence (Q15370 whole entry partner): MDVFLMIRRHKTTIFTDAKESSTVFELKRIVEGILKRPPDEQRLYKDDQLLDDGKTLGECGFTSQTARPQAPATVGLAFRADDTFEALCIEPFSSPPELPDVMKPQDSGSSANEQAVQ
T4 sequence (P10415 1-211 limits assumed): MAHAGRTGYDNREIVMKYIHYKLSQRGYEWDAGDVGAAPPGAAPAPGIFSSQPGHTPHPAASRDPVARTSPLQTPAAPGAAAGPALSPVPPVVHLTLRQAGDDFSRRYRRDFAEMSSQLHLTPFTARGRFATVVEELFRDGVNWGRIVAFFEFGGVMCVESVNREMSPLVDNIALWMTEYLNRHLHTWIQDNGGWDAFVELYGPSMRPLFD
T4 sequence (P40337 54-213 limits assumed): as the sequence (P40337 54-213 limits assumed) above
T4 sequence (Q15369 17-112 partner limits assumed): as the sequence (Q15369 17-112 partner limits assumed) above
T4 sequence (Q15370 whole entry partner): as the sequence (Q15370 whole entry partner) above

One may read the Dmax as the greatest extent of degradation seen. A lower Dmax goes with shallow degradation. `Cc1ncsc1-c1ccc([C@H](C)NC(=O)[C@@H]2C[C@@H](O)CN2C(=O)[C@@H](NC(=O)CCCCCCCCCC(=O)N2CCN(CC3(C)CCC(c4ccc(Cl)cc4)=C(CN4CCN(c5ccc(C(=O)NS(=O)(=O)c6ccc(N[C@H](CCN7CCOCC7)CSc7ccccc7)c(S(=O)(=O)C(F)(F)F)c6)cc5)CC4)C3)CC2)C(C)(C)C)cc1` (stereo partly shown) [PPC11]: the maximal degradation (Dmax) at BCL-xL (HEK-293T) and on BCL-2 (HEK-293T) was 38% throughout. For the same compound, in assay [1] (AlphaLISA, cell-free, Fig. 2c, 3e), the “in vitro ternary complex formation with BCL-xL (in words)” value is “much weaker ternary complexes”. For the same compound, the “AlphaLISA signal, BCL-xL/PROTAC/VCB” value in assay [1] (compound 0.191 nM) is 14159 and 17511; in assay [1] (compound 0.763 nM), 19035 and 14403; in assay [1] (compound 3.052 nM), 18192 and 15524; in assay [1] (compound 12.207 nM) it was 16016 and 15699; in assay [1] (compound 48.828 nM) it was 18370 and 17440; in assay [1] (compound 195.31 nM), 28376 and 33281. The “AlphaLISA signal, BCL-xL/PROTAC/VCB” value in assay [1] (compound 781.25 nM) is 25822 and 27451; in assay [1] (compound 3125 nM) it was 15301 and 22197; in assay [1] (compound 12500 nM), 15507 and 16950; in assay [1] (compound 50000 nM), 13057 and 15839; in assay [1] (setting [5]) it was 17326 and 15566. Also, the “in vitro ternary complex formation with BCL-2 (in words)” value in assay [2] (AlphaLISA, cell-free, Fig. 2d, 3f) is “much weaker ternary complexes”. Besides, the “AlphaLISA signal, BCL-2/PROTAC/VCB” value in assay [2] (compound 0.191 nM) is 16751 and 14492; in assay [2] (compound 0.763 nM), 17062 and 15173; in assay [2] (compound 3.052 nM), 17477 and 13618; in assay [2] (compound 12.207 nM) it was 15016 and 16035; in assay [2] (compound 48.828 nM), 21071 and 20895; in assay [2] (compound 195.31 nM), 36395 and 36207. The “AlphaLISA signal, BCL-2/PROTAC/VCB” value is 16303 and 18907 in assay [2] (compound 781.25 nM); 17856 and 16482 in assay [2] (compound 3125 nM); 13061 and 15598 in assay [2] (compound 12500 nM); 10324 and 9718 in assay [2] (compound 50000 nM); 13464 and 10765 in assay [2] (setting [5]).
`CN(CCOCCOCCOCCNc1cccc2c1C(=O)N(C1CCC(=O)NC1=O)C2=O)CC[C@H](CSc1ccccc1)Nc1ccc(S(=O)(=O)NC(=O)c2ccc(N3CCN(CC4=C(c5ccc(Cl)cc5)CCC(C)(C)C4)CC3)cc2)cc1S(=O)(=O)C(F)(F)F` (stereo partly shown) [XZ739, reference compound]: the “BCL-xL degradation (in words)” value at BCL-xL (293T cells, 16 h) is reported as “could degrade BCL-xL”. Further, the “normalized BCL-xL protein content” value is 88 and 95 at BCL-xL (16 h, XZ739 concentration 0.003 (unit not given), untreated = 100, 2 replicates); 85 and 86 on BCL-xL (16 h, concentration 0.01); 76 and 80 at BCL-xL (16 h, concentration 0.03); 67 and 65 at BCL-xL (16 h, concentration 0.1); 32 and 40 at BCL-xL (16 h, concentration 0.3); 32 and 31 at BCL-xL (16 h, concentration 1). For the same compound, the “normalized BCL-xL protein content” value on BCL-xL (16 h, concentration 3) is 22 and 19. For the same compound, the “normalized BCL-2 protein content” value at BCL-2 (XZ739 concentration 0.003 (unit not given), untreated = 100, 2 replicates) was 116 and 103; at BCL-2 (concentration 0.01) it was 119 and 99; at BCL-2 (concentration 0.03), 113 and 104; at BCL-2 (concentration 0.1), 114 and 109; on BCL-2 (concentration 0.3), 119 and 101; at BCL-2 (concentration 1), 102 and 95. Further, on BCL-2 (concentration 3), the “normalized BCL-2 protein content” value is 97 and 102. For the same compound, in assay [3], the “intracellular ternary complex formation with BCL-xL (in words)” value was “formed cellular ternary complexes with both BCL-xL and BCL-2”. In assay [4], the “intracellular ternary complex formation with BCL-2 (in words)” value was “formed cellular ternary complexes with both BCL-xL and BCL-2”.
